Measurements reported in the METLIN SMRT retention time set (Domingo-Almenara et al. 2019).

Experiment: gradient 5% acetonitrile 3 min, to 50% in 2 min, to 85% in 15 min, held 3 min, 100 µL/min
Conditions: column: Zorbax Extend-C18 2.1 x 50 mm; eluents: water / acetonitrile, 0.1% formic acid
Summary of the method: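 Pure standards were analyzed in mixtures of ~100 molecules using HPLC coupled to a quadrupole time-of-flight mass spectrometer, in both positive and negative ionization mode. Separation used a Zorbax Extend-C18 column (2.1 × 50 mm, 1.8 μm) at 100 μL/min, with water and acetonitrile each containing 0.1% formic acid. Dead and dwell volumes were 40 μL and 900 μL, and data were collected over 3 months. Retention time was read from computationally picked adduct peaks, each inspected manually.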

In the case of `O=C(CCCc1nnc(C(=O)Nc2ccccc2)s1)NCCc1c[nH]c2ccc(Cl)cc12`, the RP-LC retention time is reported as 889 s.

`Cc1ccc2c(c1)N(S(C)(=O)=O)CCC(C(=O)Nc1ccccc1C(C)C)O2` (stereo not given) gave an RP-LC retention time of 1020 s.

With `Cc1cc(C)c(NC(=O)C2CCN(S(=O)(=O)c3c(C)nn(-c4ccccc4)c3C)CC2)c(C)c1` the RP-LC retention time was 1010 s.

For `COc1ccc(-c2nnc(SCc3ccc(Br)cc3)o2)c(OC)c1`, the RP-LC retention time was 1120 s.

In the case of `O=C(CN1CCC2(CC1)N=C(c1ccc(F)cc1)C(=O)N2)Nc1cc(F)ccc1F`, the RP-LC retention time is reported as 692 s.

Compound `CCOc1ccc(CC(=O)NCC2CCN(Cc3ccco3)CC2)cc1` has an RP-LC retention time of 558 s.

For `CCCOc1nccnc1NC1CCN(C(=O)c2ccco2)CC1`, the RP-LC retention time was 748 s.

`NC(=O)Cc1cccc(C(=O)c2ccccc2)c1N` gave an RP-LC retention time of 734 s.

For `COc1ccc(NC(=O)N2CC(C)Oc3ccc(C)cc32)cc1OC` (stereo not given), the RP-LC retention time was 921 s.

With `O=C(Cn1c(Cc2ccccc2)nc2ccccc21)N1CCCCCC1` the RP-LC retention time was 670 s.

`CCC1CN2C=Nc3oc(C)c(C(=O)Nc4ccc(F)cc4Br)c3C2=N1` (stereo not given) showed an RP-LC retention time of 682 s.

With `Cc1nc(-c2cccnc2)nc2c1CCC(=O)N2Cc1cccs1` the RP-LC retention time was 740 s.

Work on `CC1(C(=O)NCc2ccc(F)cc2)CCCN(C(=O)Nc2ccccc2Br)C1` (stereo not given) yielded an RP-LC retention time of 955 s.

Work on `CCn1c(CCNC(=O)c2ccc(C)c(F)c2)nc2cccnc21` yielded an RP-LC retention time of 676 s.

`CC1CCN(C(=O)c2ccc(OCC3CCN(C(=O)c4ccc(C#N)cc4)CC3)cc2)CC1` showed an RP-LC retention time of 957 s.

For `O=C(NCCCN1CCCC1)C1CCN(c2nc3cccnc3s2)CC1`, the RP-LC retention time was 585 s.

For `CCOc1ccccc1NC(=O)c1c(O)c2cccnc2n(-c2ccccc2)c1=O`, the RP-LC retention time was 1330 s.

Compound `COc1ccc(Nc2nc(N)c3ccccc3n2)cc1` has an RP-LC retention time of 610 s.

With `O=C(NCc1ccccn1)C1CN(C(=O)c2c[nH]c3ccccc23)C1` the RP-LC retention time was 541 s.

Work on `CCNc1cc(N2CCC(CCC(=O)Nc3ccc(OC)c(OC)c3)CC2)ncn1` yielded an RP-LC retention time of 614 s.

With `COCCCNC(=O)N1CCCCCC1c1ccc(C)cc1` (stereo not given) the RP-LC retention time was 939 s.

`O=c1c(S(=O)(=O)N2CCCCCC2)cccn1Cc1ccc(F)cc1` gave an RP-LC retention time of 933 s.

Work on `COc1ccc(Cl)cc1NC(=O)CN1C(=O)C2CCCCN2c2ccc(C(=O)N3CCCC3)cc21` (stereo not given) yielded an RP-LC retention time of 934 s.

For `COc1ccc(-c2noc(-c3nnn(Cc4nc(-c5ccccc5OC)oc4C)c3C)n2)cc1`, the RP-LC retention time was 1100 s.

For `COc1ccc(CN2C=C(C(=O)OCc3ccccc3C)C(C)=NS2(=O)=O)cc1`, the RP-LC retention time was 1140 s.

`CCOC(=O)c1cccc(NC(=O)c2sccc2S(=O)(=O)N(C)c2ccc(OCC)cc2)c1` gave an RP-LC retention time of 1220 s.

In the case of `COCC(=O)N1CCc2c([nH]c3ccccc23)C1c1ccccc1` (stereo not given), the RP-LC retention time is reported as 935 s.

Compound `COCC(=O)N1CC2CN(S(=O)(=O)c3ccc(OC)cc3)CC(C1)O2` has an RP-LC retention time of 934 s.

`COc1ccc(OC)c(-c2csc(-c3nnn(-c4cccc(Cl)c4)c3N)n2)c1` showed an RP-LC retention time of 1180 s.

With `CC1CCN(S(=O)(=O)c2cccn(CC(=O)NCCC3=CCCCC3)c2=O)CC1` the RP-LC retention time was 878 s.

Work on `C[C@H](N)C(=O)N[C@@H](C)C(=O)N[C@@H](Cc1ccccc1)C(=O)CCl` yielded an RP-LC retention time of 638 s.

`Cc1cc(C)cc(OCc2nc(CCN(C)C(=O)c3cccs3)no2)c1` gave an RP-LC retention time of 974 s.

For `CCCC(C(=O)OCCN(CC)CC)(c1ccccc1)c1ccccc1`, the RP-LC retention time was 920 s.

For `COCCCn1c(=O)c2ccccc2n(Cc2nc(-c3ccccc3C)no2)c1=O`, the RP-LC retention time was 1020 s.

Work on `O=C(NCCCN1CCOCC1)c1cc2occc2c(Nc2ccccc2)n1` yielded an RP-LC retention time of 644 s.

In the case of `Cc1cc(C)cc(NC(=O)Cn2c(=O)nc(N3CCC(C)CC3)c3ccccc32)c1`, the RP-LC retention time is reported as 925 s.

In the case of `CCCNC(=O)C1CCCN(c2ccc(SCC(=O)Nc3c(C)cccc3Cl)nn2)C1` (stereo not given), the RP-LC retention time is reported as 655 s.

`COC(=O)c1c(C)[nH]c(C(=O)N2CCC(CC(=O)NCc3ccc(OC(C)C)cc3)CC2)c1C` gave an RP-LC retention time of 812 s.

`COc1ccc(-c2nnc(Cc3nc(-c4ccc(Cl)cc4)no3)o2)cc1OC` gave an RP-LC retention time of 990 s.

`Cc1ccc(NC(=O)C2CCN(S(=O)(=O)c3cc(-c4noc(C5CC5)n4)cs3)CC2)cc1` showed an RP-LC retention time of 1050 s.

In the case of `CCOc1ccc(-n2ccn3cc(-c4ccc(Br)cc4)nc3c2=O)cc1`, the RP-LC retention time is reported as 954 s.

For `COc1ccc(OC)c(NC(=O)N2CCCC(Cn3cnc4cccnc43)C2)c1` (stereo not given), the RP-LC retention time was 682 s.

For `O=C(c1cnc2n(c1=O)CCS2)N1CCN(c2ccc([N+](=O)[O-])cc2)CC1`, the RP-LC retention time was 635 s.

For `O=C(C1=CCN(Cc2ccc(F)cc2)CC1)N1CCN(c2ccccc2Cl)CC1`, the RP-LC retention time was 723 s.

In the case of `COc1ccc(-c2cn3cccnc3n2)cc1NC(=O)c1ccc(F)c(F)c1`, the RP-LC retention time is reported as 718 s.

With `CCOC(=O)C1=C(C)NC2=C(C(=O)C(C(=O)OC)C(C)C2)C1c1ccc(N(C)C)cc1` (stereo not given) the RP-LC retention time was 631 s.

`CC(=O)c1cccc(C(=O)N2CCC3(CC2)N=C(c2ccc(C)cc2)NO3)c1` gave an RP-LC retention time of 772 s.

Compound `Cc1ccc(CN2C[C@@H](CO)[C@H](c3nc(-c4cccnc4)no3)C2)o1` has an RP-LC retention time of 596 s.

Work on `CCn1cnc(S(=O)(=O)N2CCCC(C(=O)NC3CCCCCC3)C2)c1` (stereo not given) yielded an RP-LC retention time of 740 s.

`CCOC(=O)c1c(C)oc2nc(C)nc(NCCc3ccc(OCC)cc3)c12` gave an RP-LC retention time of 1270 s.

For `COc1ccc(S(=O)(=O)NC2CCN(C(=O)C3CCC3)CC2)cc1`, the RP-LC retention time was 750 s.

`O=C(Cc1ccccc1F)N1CCN(c2cc(-c3cccs3)[nH]n2)CC1` gave an RP-LC retention time of 794 s.

`c1ccc2c(CC3=NCCN3)cccc2c1` showed an RP-LC retention time of 619 s.

`CN1C(=O)c2cccnc2Sc2cc(C(=O)N3CCc4ccccc43)ccc21` gave an RP-LC retention time of 789 s.

Compound `CCc1cccc(Nc2c(-c3nc(C)no3)cnc3nc(C)ccc23)c1` has an RP-LC retention time of 835 s.

`COc1ccc(N2CCN(c3cc(SCC(=O)Nc4ccc(C#N)cc4)ncn3)CC2)cc1` gave an RP-LC retention time of 890 s.

`O=C(CCCc1ccccc1)NC1CCN(c2nnc3ccc(Cl)cn23)CC1` gave an RP-LC retention time of 639 s.

Compound `CCN(CC)C(=O)Oc1ccc(C(=O)Nc2cccc3ccccc23)cc1` has an RP-LC retention time of 896 s.

In the case of `CN(C)c1ccc(-c2nc3ccc(Cl)cn3c2Nc2ccc3c(c2)OCO3)cc1`, the RP-LC retention time is reported as 764 s.

Work on `CCCCOC(=O)c1ccc(NC(=O)c2c(OCC)cc(=O)n3c2CCCC3)cc1` yielded an RP-LC retention time of 910 s.

`CC1CCN(S(=O)(=O)c2ccc(-c3nnc(C(=O)NCCC4=CCCCC4)o3)cc2)CC1` gave an RP-LC retention time of 1190 s.

`CC(=O)N1CCC(CC(=O)N2CCc3nn(CC4CC4)c(=O)n3CC2)CC1` showed an RP-LC retention time of 596 s.

Compound `COCCN1CCn2cc(S(=O)(=O)Nc3cc(C)cc(C)c3)cc2C1=O` has an RP-LC retention time of 745 s.

Work on `NCCNS(=O)(=O)c1cccc2c(Cl)cccc12` yielded an RP-LC retention time of 701 s.

With `Cc1cc(C)cc(N2CCC(NC(=O)Nc3ccccc3)C2=O)c1` (stereo not given) the RP-LC retention time was 862 s.

`O=C(NC1CC1)C1CCN(c2nc3ccc(-c4cncnc4)nc3s2)CC1` gave an RP-LC retention time of 672 s.

`CCn1cnc(S(=O)(=O)N2CCCC(C(=O)NCc3ccccc3)C2)c1` (stereo not given) gave an RP-LC retention time of 768 s.

`Cc1cccc(S(=O)(=O)N(C)CC2CCOCC2)c1` gave an RP-LC retention time of 863 s.

In the case of `CCCNC(=O)CN1C(=O)CC(c2ccc(Br)s2)=Nc2ccccc21`, the RP-LC retention time is reported as 913 s.

Work on `CN(C)c1ccc(-c2nc3cnccn3c2Nc2ccccc2)cc1` yielded an RP-LC retention time of 745 s.

Work on `O=C(Cn1cccc1-c1nnc(-c2ccccc2)o1)N1CCN(c2ccc(Cl)cc2)CC1` yielded an RP-LC retention time of 1100 s.

For `COc1ccc(NC(=O)Cn2c(C(F)(F)F)nc3cc4c(cc32)OCCO4)cc1`, the RP-LC retention time was 829 s.

In the case of `COc1cn2c(cc1=O)C(=O)N(CCNC(=O)c1cc(=O)c3ccccc3o1)CC2`, the RP-LC retention time is reported as 562 s.

`COc1ccccc1N1CCN(C(=O)Cn2c(N3CCc4ccccc4C3)nc(C)cc2=O)CC1` showed an RP-LC retention time of 759 s.

`COCCNC(=O)c1nc(-c2ccnc(N3CCCCCC3)c2)no1` gave an RP-LC retention time of 602 s.

In the case of `OC(COc1ccccc1Cl)Cn1c(C2CC2)nc2ccccc21` (stereo not given), the RP-LC retention time is reported as 693 s.

With `CCc1ccc(NC(=O)C2CCCN(S(=O)(=O)c3cn(CC)cn3)C2)cc1` (stereo not given) the RP-LC retention time was 753 s.

With `NC(=O)c1cc(N2CCOCC2)nc2ccc(F)cc12` the RP-LC retention time was 688 s.

Compound `CCc1onc(C)c1C1CCCN1C(=O)Nc1ccccc1OC` (stereo not given) has an RP-LC retention time of 825 s.

Work on `COC1C(=O)N(C2CCN(C(=O)c3cnccn3)CC2)C12CCOCC2` (stereo not given) yielded an RP-LC retention time of 555 s.

For `Cc1ccc(NC(=O)C2CCc3sc(C(=O)N4CCOCC4)cc3C2)cc1C` (stereo not given), the RP-LC retention time was 570 s.

Work on `CCS(=O)(=O)c1ccc(C(=O)Nc2nnc(Cc3ccc(Cl)s3)o2)cc1` yielded an RP-LC retention time of 735 s.

Work on `CC(C)S(=O)(=O)N1CCC2(CC1)NCCCN=C2Nc1cccc(F)c1` yielded an RP-LC retention time of 638 s.

`COc1ccc(NC(=O)C2CN(S(=O)(=O)c3cccnc3)CC23CCCCC3)cc1` (stereo not given) showed an RP-LC retention time of 890 s.

`CC(C)c1ccc(-n2nc(N3CCN(C(=O)c4ccc5c(c4)OCO5)CC3)ccc2=O)cc1` gave an RP-LC retention time of 914 s.

Work on `CCCNC(=O)C1CCCN(c2nc3ncn(CC(=O)Nc4ccc(F)cc4F)c(=O)c3s2)C1` (stereo not given) yielded an RP-LC retention time of 684 s.

`CN1C(=O)COc2ccc(-c3csc(NC(=O)C4CCCCC4)n3)cc21` showed an RP-LC retention time of 988 s.

In the case of `CCN(C(=O)Cn1nc(C(=O)N2CCCCC2)c2ccccc21)c1cccc(C)c1`, the RP-LC retention time is reported as 1010 s.

Compound `CSc1ccc(NC(=O)Nc2c(-c3ccncc3)nc3ccccn23)cc1` has an RP-LC retention time of 618 s.

`O=C(Cc1cccs1)NCCN1CCN(c2ccc(Cl)cc2)CC1` showed an RP-LC retention time of 583 s.
